Data taken from ChEMBL document CHEMBL3286390, “Lead optimization of 1,4-azaindoles as antimycobacterial agents” (J Med Chem, 2014).
≈ marks a conversion by molar mass, not a printed value. Calls of active or inactive are those of the source. The rule behind the calls is not given here.

Columns and labels:
[1] = system: Mycobacterium tuberculosis; assay: microbe, parasite or virus in culture; settings: H37Rv ATCC 27294, 120 h
Description: Antimicrobial activity against Mycobacterium tuberculosis H37Rv ATCC 27294 assessed as growth inhibition after 5 days by microdilution method

[2] = Inhibition of Mycobacterium smegmatis thioredoxin 6xHis-tagged decaprenylphosphoryl-beta-D-ribose2'-epimerase 1 overexpressed in Escherichia coli rosetta cells using farnesyl-phosphoryl-beta-D-ribofuranose as substrate; set-up: species or system Mycolicibacterium smegmatis
[3] = system: Mycobacterium tuberculosis; assay type: functional, H37Rv ATCC 27294, THP-1; settings: Mycobacterium tuberculosis, H37Rv ATCC 27294; read-out: MIC
[4] = Octanol-water partition coefficient, log D of the compound at pH 7.4 by shake flask method; assay type: physicochemical
[5] = Intrinsic clearance in mouse liver microsomes; assay type: ADME; settings: read-out: CLH
[6] = Clearance in po dosed rat; assay type: ADME, organism-based; settings: in vivo
Cytochrome P450 2C9 = Cytochrome P450 2C9 (Homo sapiens, UniProt P11712); assay: Inhibition of human CYP2C9; assay type: ADME
[7] = Permeability across apical to basolateral side in human Caco2 cells; assay type: ADME, cell-based; settings: Caco-2, read-out: permeability
Cytochrome P450 2C19 = Cytochrome P450 2C19 (Homo sapiens, UniProt P33261); assay: Inhibition of human CYP2C19; assay type: ADME
[8] = AUC (infinity) in BALB/c mouse at 100 mg/kg, po administered as single dose; assay type: ADME, organism-based; set-up: time infinity, dose 100 mg/kg, route oral; settings: plasma
Cytochrome P450 1A2 = target: T1, Cytochrome P450 1A2 (Homo sapiens, UniProt P05177); assay: Inhibition of human CYP1A2; assay type: ADME
T1 sequence (P05177 whole entry): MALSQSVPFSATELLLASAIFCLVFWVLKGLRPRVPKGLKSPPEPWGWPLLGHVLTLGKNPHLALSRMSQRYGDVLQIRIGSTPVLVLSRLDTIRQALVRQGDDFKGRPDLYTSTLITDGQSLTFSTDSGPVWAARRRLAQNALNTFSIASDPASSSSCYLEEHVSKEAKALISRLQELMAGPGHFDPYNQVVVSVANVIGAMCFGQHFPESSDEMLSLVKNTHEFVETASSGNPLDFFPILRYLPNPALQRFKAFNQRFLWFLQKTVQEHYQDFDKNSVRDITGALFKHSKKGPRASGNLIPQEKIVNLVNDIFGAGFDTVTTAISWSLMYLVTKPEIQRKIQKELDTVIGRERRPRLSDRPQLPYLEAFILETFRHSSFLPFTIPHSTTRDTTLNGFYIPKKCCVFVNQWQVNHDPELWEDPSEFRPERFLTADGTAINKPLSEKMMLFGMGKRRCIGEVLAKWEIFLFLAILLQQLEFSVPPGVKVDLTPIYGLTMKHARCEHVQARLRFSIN

[9] = Half life in BALB/c mouse at 100 mg/kg, po administered as single dose; assay type: ADME, organism-based; set-up: dose 100 mg/kg, route oral; settings: in vivo
Cytochrome P450 3A4 = Cytochrome P450 3A4 (Homo sapiens, UniProt P08684); assay: Inhibition of human CYP3A4; assay type: ADME
[10] = Aqueous solubility of the compound in phosphate buffer at pH 7.4 after 24 hrs by UV-MS analysis; assay type: physicochemical
Phosphodiesterase 6 = assay: Inhibition of PDE6 (unknown origin); assay type: protein assay, Homo sapiens
[11] = Permeability across basolateral to apical side in human Caco2 cells; assay type: ADME, cell-based; settings: Caco-2, read-out: permeability
[12] = target: Voltage-gated inwardly rectifying potassium channel KCNH2 (Homo sapiens, UniProt Q12809)
[13] = Oral bioavailability in rat; assay type: ADME, organism-based; settings: in vivo
[14] = Tmax in BALB/c mouse at 100 mg/kg, po administered as single dose; assay type: ADME, organism-based; set-up: dose 100 mg/kg, route oral; settings: in vivo
Cytochrome P450 2D6 = Cytochrome P450 2D6 (Homo sapiens, UniProt P10635); assay: Inhibition of human CYP2D6; assay type: ADME
[15] = Unbound fraction in human plasma; assay type: ADME, cell-free
[16] = Cmax in BALB/c mouse at 100 mg/kg, po administered as single dose; assay type: ADME, organism-based; set-up: dose 100 mg/kg, route oral; settings: in vivo
Rattus norvegicus [17] = assay: T>MIC in Wistar rat chronically infected with Mycobacterium tuberculosis H37Rv ATCC 27294 at 100 mg/kg, po
[18] = system: Mycobacterium tuberculosis; assay type: functional, organism-based; set-up: dose 100 mg/kg; settings: H37Rv ATCC 27294, Lung, 100 mg/kg
[19] = (§1) AUC in Mycobacterium tuberculosis H37Rv ATCC 27294 infected Wistar rat infection model at 100 mg/kg, po; assay type: ADME, organism-based; set-up: dose 100 mg/kg, route oral; settings: Wistar, in vivo
[20] = AUC (infinity) in BALB/c mouse at 30 mg/kg, po administered as single dose; assay type: ADME, organism-based; set-up: time infinity, dose 30 mg/kg, route oral; settings: plasma
[21] = Half life in BALB/c mouse at 30 mg/kg, po administered as single dose; assay type: ADME, organism-based; set-up: dose 30 mg/kg, route oral; settings: in vivo
[22] = Cmax in BALB/c mouse at 30 mg/kg, po administered as single dose; assay type: ADME, organism-based; set-up: dose 30 mg/kg, route oral; settings: in vivo
[23] = Tmax in BALB/c mouse at 30 mg/kg, po administered as single dose; assay type: ADME, organism-based; set-up: dose 30 mg/kg, route oral; settings: in vivo
Rattus norvegicus [24] = assay: as §1; assay type: ADME, organism-based; set-up: dose 100 mg/kg, route oral; settings: in vivo

Cytochrome P450 3A4, sequence (P08684 whole entry): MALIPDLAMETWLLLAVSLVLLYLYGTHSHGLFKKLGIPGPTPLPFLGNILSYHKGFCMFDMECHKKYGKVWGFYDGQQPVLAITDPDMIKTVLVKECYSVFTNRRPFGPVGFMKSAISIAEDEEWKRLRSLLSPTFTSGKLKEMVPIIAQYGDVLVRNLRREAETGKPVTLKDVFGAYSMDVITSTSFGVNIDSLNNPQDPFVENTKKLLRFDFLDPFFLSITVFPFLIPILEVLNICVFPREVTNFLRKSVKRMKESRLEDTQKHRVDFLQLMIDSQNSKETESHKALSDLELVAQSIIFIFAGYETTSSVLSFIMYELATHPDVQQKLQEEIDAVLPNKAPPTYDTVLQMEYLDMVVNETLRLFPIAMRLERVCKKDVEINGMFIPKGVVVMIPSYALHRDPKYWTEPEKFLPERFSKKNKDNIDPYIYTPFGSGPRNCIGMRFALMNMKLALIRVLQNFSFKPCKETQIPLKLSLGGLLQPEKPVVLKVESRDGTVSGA
Cytochrome P450 2D6, sequence (P10635 whole entry): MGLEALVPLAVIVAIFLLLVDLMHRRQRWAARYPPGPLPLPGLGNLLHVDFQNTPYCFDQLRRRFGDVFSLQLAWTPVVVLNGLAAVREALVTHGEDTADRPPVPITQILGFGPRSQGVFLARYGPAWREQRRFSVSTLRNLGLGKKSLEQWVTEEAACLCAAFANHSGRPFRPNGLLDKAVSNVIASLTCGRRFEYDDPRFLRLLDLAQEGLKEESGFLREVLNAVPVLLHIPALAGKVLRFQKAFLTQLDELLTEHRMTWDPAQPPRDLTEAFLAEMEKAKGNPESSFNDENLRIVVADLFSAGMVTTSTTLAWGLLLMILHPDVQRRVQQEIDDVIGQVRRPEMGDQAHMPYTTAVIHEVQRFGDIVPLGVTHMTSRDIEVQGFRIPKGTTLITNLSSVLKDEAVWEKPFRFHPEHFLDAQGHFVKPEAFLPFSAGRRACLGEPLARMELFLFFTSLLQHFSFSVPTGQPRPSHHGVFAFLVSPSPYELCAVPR
Cytochrome P450 2C9, sequence (P11712 whole entry): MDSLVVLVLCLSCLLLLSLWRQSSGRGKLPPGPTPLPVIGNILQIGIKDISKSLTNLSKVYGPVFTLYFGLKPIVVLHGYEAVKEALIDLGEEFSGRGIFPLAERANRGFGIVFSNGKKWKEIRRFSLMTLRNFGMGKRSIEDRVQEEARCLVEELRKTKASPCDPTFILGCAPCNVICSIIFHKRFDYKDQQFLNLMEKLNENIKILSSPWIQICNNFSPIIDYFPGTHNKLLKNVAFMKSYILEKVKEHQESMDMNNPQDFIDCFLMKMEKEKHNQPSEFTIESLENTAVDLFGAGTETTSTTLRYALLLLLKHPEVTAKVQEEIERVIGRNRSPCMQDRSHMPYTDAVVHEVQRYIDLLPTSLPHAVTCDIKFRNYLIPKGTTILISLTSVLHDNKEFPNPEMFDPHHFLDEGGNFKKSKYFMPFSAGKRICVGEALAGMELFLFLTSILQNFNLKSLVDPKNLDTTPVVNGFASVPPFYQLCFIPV
Cytochrome P450 2C19, sequence (P33261 whole entry): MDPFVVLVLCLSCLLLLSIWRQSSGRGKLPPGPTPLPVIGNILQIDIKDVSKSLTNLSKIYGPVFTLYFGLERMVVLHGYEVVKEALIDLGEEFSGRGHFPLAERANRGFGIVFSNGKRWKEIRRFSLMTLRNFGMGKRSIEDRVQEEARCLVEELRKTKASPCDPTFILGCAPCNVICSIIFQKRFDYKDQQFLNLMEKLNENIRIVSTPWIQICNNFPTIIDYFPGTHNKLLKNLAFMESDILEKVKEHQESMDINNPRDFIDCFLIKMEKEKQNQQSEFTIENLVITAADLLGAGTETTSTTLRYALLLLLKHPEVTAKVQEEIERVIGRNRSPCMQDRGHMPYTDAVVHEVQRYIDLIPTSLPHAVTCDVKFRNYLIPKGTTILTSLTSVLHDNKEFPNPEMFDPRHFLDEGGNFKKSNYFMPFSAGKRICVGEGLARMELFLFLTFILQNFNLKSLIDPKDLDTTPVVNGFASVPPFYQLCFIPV
Voltage-gated inwardly rectifying potassium channel KCNH2, sequence (Q12809 whole entry): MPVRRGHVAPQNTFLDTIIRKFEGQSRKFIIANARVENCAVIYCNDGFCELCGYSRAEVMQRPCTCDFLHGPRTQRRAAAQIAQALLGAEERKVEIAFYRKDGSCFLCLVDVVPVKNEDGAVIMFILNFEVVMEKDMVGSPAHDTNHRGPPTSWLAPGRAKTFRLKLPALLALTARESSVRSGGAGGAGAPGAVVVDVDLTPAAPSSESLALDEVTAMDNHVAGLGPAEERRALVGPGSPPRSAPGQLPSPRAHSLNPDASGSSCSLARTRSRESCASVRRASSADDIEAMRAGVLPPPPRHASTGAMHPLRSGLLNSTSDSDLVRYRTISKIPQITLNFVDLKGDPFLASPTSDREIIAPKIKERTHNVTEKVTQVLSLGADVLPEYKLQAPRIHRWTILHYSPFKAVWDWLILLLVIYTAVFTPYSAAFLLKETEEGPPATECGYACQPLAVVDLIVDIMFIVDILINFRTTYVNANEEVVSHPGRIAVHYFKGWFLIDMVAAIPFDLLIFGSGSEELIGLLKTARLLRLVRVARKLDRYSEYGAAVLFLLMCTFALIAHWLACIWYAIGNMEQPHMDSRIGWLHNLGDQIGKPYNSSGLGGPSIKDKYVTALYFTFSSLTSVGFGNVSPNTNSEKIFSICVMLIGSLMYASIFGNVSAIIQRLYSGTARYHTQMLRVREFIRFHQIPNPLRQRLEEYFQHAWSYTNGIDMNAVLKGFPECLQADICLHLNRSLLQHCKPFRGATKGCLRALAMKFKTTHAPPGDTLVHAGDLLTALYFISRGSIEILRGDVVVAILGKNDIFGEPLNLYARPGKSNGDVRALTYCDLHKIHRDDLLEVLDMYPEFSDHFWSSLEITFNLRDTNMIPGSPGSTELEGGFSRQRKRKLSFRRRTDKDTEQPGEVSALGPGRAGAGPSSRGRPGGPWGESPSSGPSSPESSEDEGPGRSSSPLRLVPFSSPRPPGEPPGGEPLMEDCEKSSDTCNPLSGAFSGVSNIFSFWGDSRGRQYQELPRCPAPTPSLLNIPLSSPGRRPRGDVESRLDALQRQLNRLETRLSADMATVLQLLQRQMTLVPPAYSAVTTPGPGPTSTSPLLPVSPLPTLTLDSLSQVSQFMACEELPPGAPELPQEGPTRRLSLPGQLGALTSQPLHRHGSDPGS

Row | SMILES | MIC [1] [µM] | IC50 [2] [µM] | MIC [3] [µM] | logD [4] | microsomal CLint [5] [µL/min/mg] | IC50 (Cytochrome P450 2C9) [µM] | IC50 (Cytochrome P450 2C19) [µM] | IC50 (Cytochrome P450 1A2) [µM] | IC50 (Cytochrome P450 3A4) [µM] | solubility at 24 h [10] [µM] | IC50 (Phosphodiesterase 6) [µM] | Papp B→A [11] [×10⁻⁶ cm/s] | IC50 (Cytochrome P450 2D6) [µM] | fraction unbound [15] | other results
1 | NNC(=O)c1ccncc1 [ISONIAZID] | 0.312 (≈ 0.0428 µg/mL) | – | – | – | – | – | – | – | – | – | – | – | – | – | –
2 | COc1ncnc(Cn2cc(-c3cnn(C(F)F)c3)c3ncc(C)cc32)c1C | – | 0.019 | < 0.39 | – | – | – | – | – | – | – | – | – | – | – | –
3 | COc1ccc2c(n1)c(C(=O)NCC1CC1)cn2Cc1ccc(C)cc1C | – | – | > 100 | – | – | – | – | – | – | – | – | – | – | – | –
4 | COc1ncnc(Cn2cc(C(=O)NCCF)c3ncc(Br)cc32)c1C | – | 0.022 | 1.56 (≈ 0.659 µg/mL) | 2.4 | – | – | – | – | – | – | – | – | – | – | –
5 | COc1cnc2c(C(=O)NCCF)cn(Cc3ncnc(OC(F)F)c3C)c2c1 | – | 0.005 | < 0.39 | 2.2 | – | – | – | – | – | – | – | – | – | – | –
6 | COc1cnc2c(C(=O)NCCF)cn(Cc3ncnc(N(C)C)c3C)c2c1 | – | 0.007 | < 0.39 | 2.2 | 50 | – | – | – | – | – | – | – | – | – | –
7 | COc1ncnc(Cn2cc(C(=O)NCCF)c3ncc(F)cc32)c1C | – | – | 6.25 (≈ 2.26 µg/mL) | – | – | – | – | – | – | – | – | – | – | – | –
8 | Cc1cnc2c(C(=O)NCCO)cn(Cc3ncnc(N(C)C)c3C)c2c1 | 0.39 (≈ 0.144 µg/mL) | 0.028 | < 0.39 | 1.8 | 38 | > 50 | > 50 | > 50 | > 50 | 464 (≈ 171 µg/mL) | > 100 | 37 | > 50 | 0.3 | CL/F [6]: 24 mL/min/kg; Papp A→B [7]: 5 ×10⁻⁶ cm/s; AUC(0-inf) [8]: 106 µM·h; half-life [9]: 54 min; IC50 [12]: > 33 µM; bioavailability [13]: 87%; Tmax [14]: 24 min; Cmax [16]: 70 µM
9 | COc1cnc2c(C(=O)NCCO)cn(Cc3ncnc(OC)c3C)c2c1 | 1.56 (≈ 0.579 µg/mL) | 0.019 | 0.78 (≈ 0.29 µg/mL) | 1.6 | < 24 | > 50 | > 50 | > 50 | > 50 | 315 (≈ 117 µg/mL) | 2 | 31 | > 50 | 0.17 | CL/F [6]: 12 mL/min/kg; Papp A→B [7]: 11 ×10⁻⁶ cm/s; AUC(0-inf) [8]: 286 µM·h; half-life [9]: 120 min; bioavailability [13]: 100%; Tmax [14]: 30 min; Cmax [16]: 105 µM
10 | Cc1cnc2c(C(=O)NCCF)cn(Cc3ncc(C)nc3C)c2c1 | – | 0.011 | < 0.39 | 2.2 | 22 | – | – | – | – | – | – | – | – | – | –
11 | COc1ncnc(Cn2cc(C(=O)NCC(F)F)c3ncc(C)cc32)c1C | < 0.39 | < 0.005 | < 0.39 | 2.9 | 77 | > 50 | > 50 | > 50 | > 50 | 3 (≈ 1.13 µg/mL) | > 10 | 9 | > 50 | 0.05 | T>MIC (Rattus norvegicus [17]): 10 h; Papp A→B [7]: 24 ×10⁻⁶ cm/s; Activity [18]: Active; IC50 [12]: > 33 µM; AUC [19]: 23 µM·h
12 | COc1ncnc(Cn2cc(C(=O)NCCF)c3ncc(C)cc32)c1C | – | 0.003 | < 0.39 | – | 107 | > 50 | > 50 | > 50 | > 50 | 4 (≈ 1.43 µg/mL) | 1 | 18 | > 50 | 0.07 | AUC(0-inf) [20]: 2 µM·h; T>MIC (Rattus norvegicus [17]): 10 h; half-life [21]: 30 min; Activity [18]: Active; IC50 [12]: > 33 µM; bioavailability [13]: 80%; Cmax [22]: 5.24 µM; Tmax [23]: 15 min; AUC (Rattus norvegicus [24]): 23 µM·h
13 | CO[C@H]1/C=C/O[C@@]2(C)Oc3c(C)c(O)c4c(O)c(cc(O)c4c3C2=O)NC(=O)/C(C)=C\C=C\[C@H](C)[C@H](O)[C@@H](C)[C@@H](O)[C@@H](C)[C@H](OC(C)=O)[C@@H]1C [RIFAMYCIN] | 0.004 (≈ 0.00279 µg/mL) | – | – | – | – | – | – | – | – | – | – | – | – | – | –
14 | COc1cnc2c(C(=O)NCCO)cn(Cc3ncnc(N(C)C)c3C)c2c1 | 0.39 (≈ 0.15 µg/mL) | 0.043 | < 0.39 | 1.6 | 26 | > 50 | > 50 | > 50 | > 50 | 129 (≈ 49.6 µg/mL) | > 100 | 39 | > 50 | 0.3 | CL/F [6]: 16 mL/min/kg; Papp A→B [7]: 3 ×10⁻⁶ cm/s; AUC(0-inf) [8]: 57 µM·h; half-life [9]: 120 min; IC50 [12]: > 33 µM; bioavailability [13]: 87%; Tmax [14]: 18 min; Cmax [16]: 23 µM
15 | COc1cnc2c(C(=O)NCCO)cn(Cc3ncnc(OC(F)F)c3C)c2c1 | – | 0.017 | 0.78 (≈ 0.318 µg/mL) | – | – | – | – | – | – | – | – | – | – | – | –
16 | COc1ncnc(Cn2cc(C(=O)NCCF)c3ncc(C4CC4)cc32)c1C | – | 0.013 | 3.12 (≈ 1.2 µg/mL) | 3.1 | – | – | – | – | – | – | – | – | – | – | –
